Data published in EP3595655B1, “THERAPEUTIC DOSAGE AND REGIMEN FOR MELATONIN” (Chiesi Farmaceutici S.p.A., priority 2017, dated 2018).
“Also recorded” adds a separate entry of the source. Read-outs that look alike come from different tables or passages of the source.

Tests used:
[1] = tested on: rat organotypic hippocampal slice cultures; assay: Oxygen-glucose deprivation (OGD) in organotypic hippocampal slice cultures, cell death by propidium iodide incorporation; assay type: cell-based; conditions: for Cell death, estimated by propidium iodide incorporation, induced by OGD: OGD alone 90.8 ± 7.6%
Excerpt: Concentration-response studies were aimed at detecting the range of concentration of melatonin resulting in neuroprotection against oxygen-glucose deprivation (OGD), an experimental model simulating hypoxia-ischemia and reperfusion. Ischemia was simulated in vitro by anoxia combined with a glucose-free media (OGD) in rat organotypic hippocampal slice cultures.

[2] = tested on: piglet model of neonatal asphyxia; conditions: for NTP/epp (whole forebrain, 9.4T MRS): 24h after hypoxia-ischaemia, melatonin 15 mg/kg i.v. over 6h at 2h and 26h plus cooling, p=0.038; for cell death (TUNEL positive cells) in the sensorimotor cortex: p<0.003, p=0.003 (Fig. 4)
Protocol: Objective: To assess neuroprotection of intravenous melatonin (15 mg/kg) infused slowly over 6h (2.5 mg/kg/h) initiated 2 h after hypoxia-ischaemia in a piglet model of neonatal asphyxia (Fig. 1). Primary outcome measures were TUNEL immuno-labelling of cell death over 9 brain regions (Fig. 2). Secondary outcomes were amplitude-integrated electroencephalography(aEEG) recovery, and magnetic resonance spectroscopy (MRS) biomarkers (NTP/epp and lactate/N acetyl aspartate).
During hypoxia-ischemia the β-NTP peak height was continuously monitored using in-house Matlab (Mathworks) software. At the point at which β-NTP had fallen to 50% of its baseline value, FiO2 was increased to 9%. […] The head was immobilized in a stereotactic frame for MRS acquisition. […] After surgical preparation, multichannel six-lead EEG monitoring (Nicolet, Care Fusion, Wisconsin, USA) was acquired at baseline and throughout the periods between MRS data acquisitions. Filtered amplitude-integrated EEG recordings were classified according to the pattern classification. A score of 0 was flat trace; 1, continuous low voltage; 2, burst suppression; 3, discontinuous normal voltage; and 4, continuous normal voltage, at baseline and then every hour after hypoxia-ischemia. […] Blood samples were collected in lithium/heparin tubes and centrifuged immediately after collection. Plasma was separated and then stored at - 20°C before analysis. Melatonin was routinely measured by direct radioimmunoassay.

[3] = Plasma melatonin levels in piglets (direct radioimmunoassay); assay type: in vivo; conditions: melatonin-treated piglets; therapeutic range from Robertson et al. 2013
[4] = Solubilisation of melatonin with Captisol, with or without PEG, in different vehicles; assay type: physicochemical; conditions: Captisol solutions in WFI, glucose 10% solution or phosphate buffer
Protocol: The first set of experiments was aimed to assess the possibility to solubilise melatonin with different quantity of sulfobutylether-β-cyclodextrin (Captisol™). The test was performed by the addition of melatonin. In the solution containing the Captisol at different concentrations up to presence of undissolved material on the bottom; the solution was filtered and analysed. These tests were performed with three different vehicles: water for injection (WFI), glucose 10% solution and phosphate buffer. In a second set of experiments, PEG with different molecular weights (PEG 300 and PEG 400) was added to verify the possibility to reduce the amount of Captisol used for the dissolution. The results of the first set of experiments, were obtained measuring the assay in formulation at the higher solubility limits having on the bottom some undissolved particles. […] Captisol concentration of 5% was identified as a suitable one, and confirmed by the other results.

newborn piglets = conditions: intravenous 5 mg/kg/h over six hours (30 mg/kg), 10 minutes after resuscitation; cited from earlier work

## COc1ccc2[nH]cc(CCNC(C)=O)c2c1 [melatonin, N-[2-(5-Methoxy-1H-indol-3-yl)ethyl] acetamide]
[1]; 3 µM melatonin
  Cell death, estimated by propidium iodide incorporation, induced by OGD: 57.6 ± 6.9%
[1]; 10 µM melatonin
  Cell death, estimated by propidium iodide incorporation, induced by OGD: 60.9 ± 7.4%
[1]; 25 µM melatonin
  Cell death, estimated by propidium iodide incorporation, induced by OGD: 47.3 ± 3.8%
[1]; 50 µM melatonin
  Cell death, estimated by propidium iodide incorporation, induced by OGD: 38.9 ± 4.2%
[1]; all doses tested with the exception of 1 uM, p<0.01 Dunnet's test after ANOVA
  statistical analysis of the effect on OGD-induced cell death: significant effect
[1]; hippocampal slice cultures of neonatal rats, 1-50 µM
  reduction of OGD-induced cell death: concentration-dependent manner
[2]; 24 and 48h after hypoxia-ischaemia
  3T MRS: NTP/epp and PCr/Pi in whole forebrain, Lac/NAA in thalamus and white matter: no difference in any ratio
[2]; versus vehicle
  NTP/epp (whole forebrain, 9.4T MRS): ameliorated the NTP/ePP decline
[2]; versus vehicle, listed as Melatonin
  NTP/epp (whole forebrain, 9.4T MRS): higher
[2]; baseline, 24 and 48h after hypoxia-ischaemia, melatonin 5 and 15 mg/kg groups versus vehicle, apart from 24h NTP/epp
  9.4T MRS: NTP/epp and PCr/Pi in whole forebrain, Lac/NAA in thalamus and white matter: no difference
[2]; between groups at any time point
  group mean hourly aEEG scores: no difference
[2]; melatonin 5 mg/kg/24h i.v. over 6h started 2h after hypoxia-ischaemia plus cooling
  brain protection: no protection
[2]; melatonin 15 mg/kg/24h i.v. over 6h started 2h after hypoxia-ischaemia plus cooling, versus vehicle, 48h
  cell death (TUNEL positive cells) in the sensorimotor cortex: significant protection; also recorded: significant reduction in TUNEL positive cells
[2]; melatonin 15 mg/kg/24h i.v. over 6h started 2h after hypoxia-ischaemia plus cooling, versus vehicle, 48h, listed as Melatonin
  cell death (TUNEL positive cells) in the sensorimotor cortex: reduced cell death
[2]; melatonin 15 mg/kg/24h i.v. over 6h started 2h after hypoxia-ischaemia plus cooling, versus vehicle, 48h, p=0.068, p=0.069 (Fig. 4)
  cell death (TUNEL positive cells) across the whole brain: trend of reduced cell death; also recorded: trend to overall brain reduced TUNEL positive cells; also recorded: trend towards reduced TUNEL positive cells
[2]; piglets, melatonin i.v. infusion plus cooling
  physiological parameters monitored, including mean arterial pressure and inotrope use: did not affect
[3]
  plasma levels: within the expected therapeutic range
[4]
  influence of glucose or buffer as vehicle on solubility: does not influence the solubility
Newborn piglets
  hypothermic neuroprotection: increases hypothermic neuroprotection
